Results taken from US20070293582A1, “Epinephrine dosing regimens comprising buccal, lingual or sublingual and injectable dosage forms” (priority 2006, published 2007).
Read-outs that look alike come from different tables or passages of the source.

Tested on: patient experiencing an allergic emergency (symptoms of anaphylaxis)
Details: approximately 5 minutes apart
Description: (§1) A patient experiencing an allergic emergency initiates treatment at the onset of shortness of breath by self administering 40 mg of epinephrine free base in a buccal dosage form.
as §1
A patient experiencing an allergic emergency initiates treatment at the onset of shortness of breath by self administering 40 mg of epinephrine free base in a lingual dosage form.

Measured: patient's symptoms of anaphylaxis

CNC[C@H](O)c1ccc(O)c(O)c1 [epinephrine]
relieved: Example 1: 40 mg buccal, second 40 mg buccal, then first auto-injected 0.3 mg dose, outcome within about five minutes after the first injectable dose | Example 2: 40 mg buccal, 60 mg buccal, then two auto-injected 0.3 mg doses, outcome within about five minutes after the second injectable dose | Example 3: 40 mg lingual, 60 mg lingual, then two auto-injected 0.3 mg doses, outcome within about five minutes after the second injectable dose
